Numbers after ± are expanded uncertainties.
Columns and labels:
[1] = 101.33 kPa, Liquid
[2] = activity coefficient (dimensionless); of the first substance listed, at infinite dilution; xn = mol fraction of the nth substance listed; conditions: Liquid, x1 = 0

Compound | activity coefficient ([2]; 303.15 K, Chromatography) | activity coefficient ([2]; 303.15 K, dilutor) | activity coefficient ([2]; 313.15 K, Chromatography) | activity coefficient ([2]; 313.15 K, dilutor) | activity coefficient ([2]; 323.15 K, Chromatography) | activity coefficient ([2]; 323.15 K, dilutor) | activity coefficient ([2]; 333.15 K, Chromatography) | activity coefficient ([2]; 333.15 K, dilutor) | further results
CCCCCCCCn1cc[n+](C)c1.O=S(=O)([N-]S(=O)(=O)C(F)(F)F)C(F)(F)F |  |  |  |  |  |  |  |  | mass density ([1]; 298.15 K): 1325 ± 5 kg/m3; mass density ([1]; 303.15 K): 1320 ± 5 kg/m3; mass density ([1]; 308.15 K): 1316 ± 5 kg/m3; mass density ([1]; 313.15 K): 1311 ± 5 kg/m3; mass density ([1]; 318.15 K): 1307 ± 5 kg/m3; mass density ([1]; 323.15 K): 1303 ± 5 kg/m3; mass density ([1]; 328.15 K): 1298 ± 5 kg/m3; mass density ([1]; 333.15 K): 1294 ± 5 kg/m3; mass density ([1]; 338.15 K): 1289 ± 5 kg/m3; mass density ([1]; 343.15 K): 1285 ± 5 kg/m3
CCCCCCC [heptane] + CCCCCCCCn1cc[n+](C)c1.O=S(=O)([N-]S(=O)(=O)C(F)(F)F)C(F)(F)F | 6.82 ± 0.31 | 7.01 ± 0.35 | 6.55 ± 0.3 | 6.81 ± 0.34 | 6.38 ± 0.29 | 6.57 ± 0.33 | 6.21 ± 0.28 | 6.4 ± 0.32 | 
CCC(C)=O [butanone] + CCCCCC[n+]1ccn(C)c1.O=S(=O)([N-]S(=O)(=O)C(F)(F)F)C(F)(F)F | 0.41 ± 0.03 |  | 0.42 ± 0.03 |  | 0.44 ± 0.03 |  | 0.44 ± 0.03 |  | 
C1CCCCC1 [cyclohexane] + CCCCCC[n+]1ccn(C)c1.O=S(=O)([N-]S(=O)(=O)C(F)(F)F)C(F)(F)F | 5.48 ± 0.25 | 5.29 ± 0.26 | 5.15 ± 0.24 | 5.01 ± 0.25 | 4.9 ± 0.22 | 4.78 ± 0.24 | 4.75 ± 0.22 | 4.68 ± 0.23 | 
CCCC(C)=O [pentan-2-one] + CCCCCC[n+]1ccn(C)c1.O=S(=O)([N-]S(=O)(=O)C(F)(F)F)C(F)(F)F | 0.51 ± 0.03 |  | 0.52 ± 0.03 |  | 0.54 ± 0.03 |  | 0.55 ± 0.03 |  | 
C1=CCCC1 [cyclopentene] + CCCCCCCCn1cc[n+](C)c1.O=S(=O)([N-]S(=O)(=O)C(F)(F)F)C(F)(F)F |  | 1.86 ± 0.09 |  | 1.84 ± 0.09 |  | 1.81 ± 0.09 |  | 1.78 ± 0.09 | 
C=CCCCC [hex-1-ene] + CCCCCC[n+]1ccn(C)c1.O=S(=O)([N-]S(=O)(=O)C(F)(F)F)C(F)(F)F | 4.71 ± 0.21 | 4.64 ± 0.23 | 4.61 ± 0.21 | 4.56 ± 0.23 | 4.48 ± 0.2 | 4.48 ± 0.22 | 4.44 ± 0.2 | 4.39 ± 0.22 | 
c1ccccc1 [benzene] + CCCC[N+]1(C)CCCC1.O=S(=O)([N-]S(=O)(=O)C(F)(F)F)C(F)(F)F |  | 0.84 ± 0.04 |  | 0.86 ± 0.04 |  | 0.88 ± 0.04 |  | 0.89 ± 0.04 | 
CCCO [propan-1-ol] + CCCCCC[n+]1ccn(C)c1.O=S(=O)([N-]S(=O)(=O)C(F)(F)F)C(F)(F)F | 1.9 ± 0.08 |  | 1.71 ± 0.07 |  | 1.57 ± 0.06 |  | 1.45 ± 0.05 |  | 
CC(C)=O [acetone] + CCCCCC[n+]1ccn(C)c1.O=S(=O)([N-]S(=O)(=O)C(F)(F)F)C(F)(F)F |  | 0.31 ± 0.02 |  | 0.32 ± 0.02 |  | 0.34 ± 0.02 |  | 0.34 ± 0.02 | 
CO [methanol] + CCCCCC[n+]1ccn(C)c1.O=S(=O)([N-]S(=O)(=O)C(F)(F)F)C(F)(F)F | 1.3 ± 0.04 |  | 1.19 ± 0.04 | 1.16 ± 0.06 | 1.1 ± 0.03 | 1.14 ± 0.06 | 1.02 ± 0.03 | 1.05 ± 0.05 | 
CCO [ethanol] + CCCCCCCCn1cc[n+](C)c1.O=S(=O)([N-]S(=O)(=O)C(F)(F)F)C(F)(F)F | 1.46 ± 0.06 |  | 1.34 ± 0.05 |  | 1.22 ± 0.04 |  | 1.12 ± 0.03 |  | 
C=CCCCCC [1-heptene] + CCCCCC[n+]1ccn(C)c1.O=S(=O)([N-]S(=O)(=O)C(F)(F)F)C(F)(F)F | 6.46 ± 0.3 | 6.28 ± 0.31 | 6.28 ± 0.29 | 6.12 ± 0.31 | 6.09 ± 0.28 | 5.96 ± 0.3 | 5.96 ± 0.27 | 5.86 ± 0.29 | 
C=CCCCCC [1-heptene] + CCCCCCCCn1cc[n+](C)c1.O=S(=O)([N-]S(=O)(=O)C(F)(F)F)C(F)(F)F | 4.29 ± 0.2 | 4.33 ± 0.22 | 4.23 ± 0.19 | 4.26 ± 0.21 | 4.13 ± 0.19 | 4.2 ± 0.21 | 4.13 ± 0.19 | 4.15 ± 0.21 | 
CCCCCC[n+]1ccn(C)c1.O=S(=O)([N-]S(=O)(=O)C(F)(F)F)C(F)(F)F |  |  |  |  |  |  |  |  | mass density ([1]; 293.15 K): 1374 ± 5 kg/m3; mass density ([1]; 298.15 K): 1370 ± 5 kg/m3; mass density ([1]; 303.15 K): 1365 ± 5 kg/m3; mass density ([1]; 308.15 K): 1361 ± 5 kg/m3; mass density ([1]; 313.15 K): 1356 ± 5 kg/m3; mass density ([1]; 318.15 K): 1352 ± 5 kg/m3; mass density ([1]; 323.15 K): 1347 ± 5 kg/m3; mass density ([1]; 328.15 K): 1343 ± 5 kg/m3; mass density ([1]; 333.15 K): 1339 ± 5 kg/m3; mass density ([1]; 338.15 K): 1334 ± 5 kg/m3; mass density ([1]; 343.15 K): 1330 ± 5 kg/m3; mass density ([1]; 348.15 K): 1325 ± 5 kg/m3; mass density ([1]; 353.15 K): 1320 ± 5 kg/m3; mass density ([1]; 358.15 K): 1315 ± 5 kg/m3
CCC(C)(C)OC [2-methoxy-2-methylbutane] + CCCCCC[n+]1ccn(C)c1.O=S(=O)([N-]S(=O)(=O)C(F)(F)F)C(F)(F)F | 1.83 ± 0.08 |  | 1.9 ± 0.08 |  | 1.94 ± 0.09 |  | 2.02 ± 0.09 |  | 
Cc1ccc(C)cc1 [1,4-dimethylbenzene] + CCCCCCCCn1cc[n+](C)c1.O=S(=O)([N-]S(=O)(=O)C(F)(F)F)C(F)(F)F | 1.11 ± 0.03 |  | 1.13 ± 0.03 |  | 1.16 ± 0.04 |  | 1.16 ± 0.04 |  | 
C=CCCC [1-pentene] + CCCC[N+]1(C)CCCC1.O=S(=O)([N-]S(=O)(=O)C(F)(F)F)C(F)(F)F |  | 4.95 ± 0.25 |  | 4.91 ± 0.25 |  | 4.81 ± 0.24 |  | 4.8 ± 0.24 | 
c1ccccc1 [benzene] + CCCCCC[n+]1ccn(C)c1.O=S(=O)([N-]S(=O)(=O)C(F)(F)F)C(F)(F)F | 0.75 ± 0.03 |  | 0.76 ± 0.03 |  | 0.78 ± 0.03 |  | 0.79 ± 0.03 |  | 
CO [methanol] + CCCCCCCCn1cc[n+](C)c1.O=S(=O)([N-]S(=O)(=O)C(F)(F)F)C(F)(F)F | 1.23 ± 0.04 |  | 1.14 ± 0.03 |  | 1.03 ± 0.03 |  | 0.96 ± 0.03 |  | 
C1=CCCCC1 [cyclohexene] + CCCCCC[n+]1ccn(C)c1.O=S(=O)([N-]S(=O)(=O)C(F)(F)F)C(F)(F)F | 3.42 ± 0.16 | 3.2 ± 0.16 | 3.28 ± 0.15 | 3.15 ± 0.16 | 3.18 ± 0.14 | 3.07 ± 0.15 | 3.14 ± 0.14 | 3.01 ± 0.15 | 
CCCCCC [hexane] + CCCC[N+]1(C)CCCC1.O=S(=O)([N-]S(=O)(=O)C(F)(F)F)C(F)(F)F |  | 13.8 ± 0.7 |  | 13.3 ± 0.7 |  | 12.1 ± 0.6 |  | 11 ± 0.6 | 
CCOC(C)(C)C [2-ethoxy-2-methylpropane] + CCCCCC[n+]1ccn(C)c1.O=S(=O)([N-]S(=O)(=O)C(F)(F)F)C(F)(F)F | 2.69 ± 0.12 |  | 2.74 ± 0.12 |  | 2.76 ± 0.13 |  | 2.82 ± 0.13 |  | 
CCCCC [pentane] + CCCCCC[n+]1ccn(C)c1.O=S(=O)([N-]S(=O)(=O)C(F)(F)F)C(F)(F)F | 5.95 ± 0.27 | 5.93 ± 0.3 | 5.76 ± 0.26 | 5.67 ± 0.28 | 5.65 ± 0.26 | 5.48 ± 0.27 | 5.52 ± 0.25 | 5.27 ± 0.26 | 
C1CCCC1 [cyclopentane] + CCCC[N+]1(C)CCCC1.O=S(=O)([N-]S(=O)(=O)C(F)(F)F)C(F)(F)F |  | 6.14 ± 0.31 |  | 5.7 ± 0.29 |  | 5.41 ± 0.27 |  | 5.12 ± 0.26 | 
Cc1cccc(C)c1 [1,3-dimethylbenzene] + CCCCCCCCn1cc[n+](C)c1.O=S(=O)([N-]S(=O)(=O)C(F)(F)F)C(F)(F)F | 1.13 ± 0.03 |  | 1.15 ± 0.04 |  | 1.17 ± 0.04 |  | 1.19 ± 0.04 |  | 
CCCCCCC [heptane] + CCCC[N+]1(C)CCCC1.O=S(=O)([N-]S(=O)(=O)C(F)(F)F)C(F)(F)F |  | 20.7 ± 1 |  | 19.3 ± 1 |  | 18.2 ± 0.9 |  | 17.2 ± 0.9 | 
C=CCCC [1-pentene] + CCCCCCCCn1cc[n+](C)c1.O=S(=O)([N-]S(=O)(=O)C(F)(F)F)C(F)(F)F | 2.52 ± 0.11 | 2.54 ± 0.13 | 2.53 ± 0.11 | 2.53 ± 0.13 | 2.46 ± 0.11 | 2.53 ± 0.13 | 2.45 ± 0.11 | 2.52 ± 0.13 | 
Cc1ccccc1 [toluene] + CCCCCCCCn1cc[n+](C)c1.O=S(=O)([N-]S(=O)(=O)C(F)(F)F)C(F)(F)F | 0.82 ± 0.03 |  | 0.83 ± 0.03 |  | 0.85 ± 0.03 |  | 0.85 ± 0.03 |  | 
C=CCCCCCC [oct-1-ene] + CCCC[N+]1(C)CCCC1.O=S(=O)([N-]S(=O)(=O)C(F)(F)F)C(F)(F)F |  | 15 ± 0.8 |  | 13.9 ± 0.7 |  | 13.3 ± 0.7 |  | 13.2 ± 0.7 | 

Reference: the NIST ThermoML archive (doi:10.1016/j.jct.2005.04.010)
